The target in this experiment is T1, recombinant autotaxin (Homo sapiens, UniProt Q13822).
T1 construct: made in house; host or cells: Hi5 insect cells (baculovirus)
The experiment can be described thus: Autotaxin test (enzyme test), Amplex Red fluorescence. Particulars: substrate LPC 75 μM, Amplex Red detection, read-out: IC50 (autotaxin inhibition, enzyme test). The experiment is classed as biochemical. The essentials: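 Recombinant human autotaxin from baculovirus/Hi5 (16 ng) was preincubated with compound 30 min at 22 °C. Reaction with 75 μM egg LPC ran 90 min at 37 °C. Released choline was coupled via alkaline phosphatase, choline oxidase and HRP to Amplex Red, read as resorufin fluorescence (ex485/em612) in kinetic mode.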

Broadly, the IC50 is the concentration that inhibits the measured activity by half.

With `CCCCc1ccc(NC(=O)Nc2[nH]c(Cc3ccc(C(=O)N4CCCCC4)o3)nc2C(N)=O)cc1` [Compound A88, 5-[3-(4-Butylphenyl)ureido]-2-[5-(piperidine-1-carbonyl)furan-2-ylmethyl]-1H-imidazole-4-carboxamide], the 50% inhibitory concentration (IC50) is greater than 10 µM.
To `CCCCc1ccc(NC(=O)Nc2[nH]c(Cc3ccc(C(=O)N(C)CCC)o3)nc2C(N)=O)cc1` [Compound A90, 5-[3-(4-Butylphenyl)ureido]-2-[5-(methylpropyl-carbamoyl)furan-2-ylmethyl]-1H-imidazole-4-carboxamide] belongs greater than 10 µM.
For the molecule `CCCCc1ccc(NC(=O)Nc2[nH]c(Cc3ccc(C(=O)N4CCC(CCO)CC4)o3)nc2C(N)=O)cc1` [Compound A91, 5-[3-(4-Butylphenyl)ureido]-2-{5-[4-(2-hydroxy-ethyl)piperidine-1-carbonyl]furan-2-ylmethyl}-1H-imidazole-4-carboxamide], the IC50 fell in the range of 1 to 10 µM.
With `CC(C)c1ccccc1NC(=O)Nc1[nH]c(Cc2ccc(C(=O)O)cc2)nc1C(N)=O` [Compound A92, 4-{4-Carbamoyl-5-[3-(2-isopropylphenyl)ureido]-1H-imidazol-2-ylmethyl}benzoic acid], the IC50 was greater than 10 µM.
As to `NC(=O)c1nc(Cc2ccc(C(=O)O)cc2)[nH]c1NC(=O)Nc1ccc(OC(F)(F)F)cc1` [Compound A93, 4-{4-Carbamoyl-5-[3-(4-trifluoromethoxyphenyl)-ureido]-1H-imidazol-2-ylmethyl}benzoic acid], the IC50 fell in the range of 1 to 10 µM.
To `CCCCc1ccc(NC(=O)Nc2[nH]c(Cc3ccc(C(=O)N4CCOCC4)cc3)nc2C(N)=O)cc1` [Compound A94, 5-[3-(4-Butylphenyl)ureido]-2-[4-(morpholine-4-carbonyl)benzyl]-1H-imidazole-4-carboxamide] belongs 1 to 10 µM; to `CCCCOc1ccc(NC(=O)Nc2[nH]c(Cc3ccc(O)cc3)nc2C(N)=O)cc1` [Compound A95, 5-[3-(4-Butoxyphenyl)ureido]-2-(4-hydroxy-benzyl)-1H-imidazole-4-carboxamides], greater than 10 µM.
To `NC(=O)c1nc(Cc2ccc([N+](=O)[O-])cc2)[nH]c1NC(=O)Nc1ccc(C(F)(F)F)cc1` [Compound A96, 2-(4-Nitrobenzyl)-5-[3-(4-trifluoromethylphenyl)-ureido]-1H-imidazole-4-carboxamide] belongs greater than 10 µM; to `NC(=O)c1nc(Cc2ccc(N)cc2)[nH]c1NC(=O)Nc1ccc(C(F)(F)F)cc1` [Compound A97, 2-(4-aminobenzyl)-5-[3-(4-trifluoromethylphenyl)-ureido]-1H-imidazole-4-carboxamide], 1 to 10 µM; to `COC(=O)c1ccc(Cc2nc(C(N)=O)c(NC(=O)Nc3ccc(C(F)(F)F)cc3)[nH]2)cc1` [Compound A98, Methyl 4-{4-carbamoyl-5-[3-(4-trifluoromethyl-phenyl)ureido]-1H-imidazol-2-ylmethyl}benzoate], greater than 10 µM.
To `COC(=O)c1ccc(Cc2nc(C(N)=O)c(NC(=O)Nc3ccc(OC(F)(F)F)cc3)[nH]2)cc1` [Compound A99, Methyl 4-{4-carbamoyl-5-[3-(4-trifluoromethoxy-phenyl)ureido]-1H-imidazol-2-ylmethyl}benzoate] belongs greater than 10 µM.
As for `CCCCOc1ccc(NC(=O)Nc2[nH]c(Cc3ccc(CO)cc3)nc2C(N)=O)cc1` [Compound A100, 5-[3-(4-butoxyphenyl)ureido]-2-(4-hydroxy-methylbenzyl)-1H-imidazole-4-carboxamide], the IC50 is greater than 10 µM.
Regarding `Cc1oc(-c2ccccc2)cc1NC(=O)Nc1[nH]c(Cc2ccc(C(=O)O)cc2)nc1C(N)=O` [Compound A101, 4-{4-Carbamoyl-5-[3-(2-methyl-5-phenylfuran-3-yl)ureido]-1H-imidazol-2-ylmethyl}benzoic acid], the IC50 was greater than 10 µM.
For `NC(=O)c1nc(Cc2ccc(C(=O)O)cc2)[nH]c1NC(=O)Nc1cccs1` [Compound A102, 4-[4-Carbamoyl-5-(3-thiophen-2-ylureido)-1H-imidazol-2-ylmethyl]benzoic acid] the value was 1 to 10 µM; for `NC(=O)c1nc(Cc2ccc(C(=O)NCCc3c[nH]cn3)cc2)[nH]c1NC(=O)Nc1ccc(C(F)(F)F)cc1` [Compound A103, 2-{4-[2-(1H-Imidazol-4-yl)ethylcarbamoyl]benzyl}-5-[3-(4-trifluoromethylphenyl)ureido]-1H-imidazole-4-carboxamide], greater than 10 µM; for `CC(C)(CCc1nc(C(N)=O)c(NC(=O)Nc2ccc(Cl)cc2)[nH]1)C(=O)O` [Compound B75], greater than 10 µM.
For `NC(=O)c1nc(CCCCN2C(=O)c3ccccc3C2=O)[nH]c1NC(=O)Nc1ccc(Cl)cc1` [Compound B77] the value was greater than 10 µM; for `NC(=O)c1nc(CN2C(=O)c3ccccc3C2=O)[nH]c1NC(=O)Nc1ccc(Cl)cc1` [Compound B78], greater than 10 µM.
For `NC(=O)c1nc(CCC(=O)Nc2ccc3[nH]c(=O)oc3c2)[nH]c1NC(=O)Nc1ccc(Cl)cc1` [Compound B79] the value was greater than 10 µM; for `NC(=O)c1nc(CCC(=O)Nc2ccc3[nH]nnc3c2)[nH]c1NC(=O)Nc1ccc(Cl)cc1` [Compound B80], greater than 10 µM; for `NC(=O)c1nc(Cc2ccc(OCC(=O)O)cc2)[nH]c1NC(=O)c1cc(-c2ccc(Cl)cc2)n[nH]1` [Compound B82], greater than 10 µM.

Values taken from US20100249132A1, “IMIDAZOLE DERIVATIVES” (MERCK PATENT GESELLSCHAFT MIT BESCHRANKTER HAFTUNG, priority 2007, published 2010).
